Measured values taken from article PMC7413254 (Nature Communications, 2020).

Key:
Format in all cases: cell-based
PfCRT^Dd2 [1] = biological target: T1, PfCRT^Dd2 (Plasmodium falciparum, UniProt Q9N623, A220S/I356T/K76T/M74I/N326S/N75E/Q271E/R371I); experiment: [3H]CQ uptake into Xenopus oocytes, cis-inhibition by unlabelled solute; conditions: PfCRTDd2 oocytes, background [3H]CQ accumulation subtracted, normalised to oocyte type control
Method in brief: (§1)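 Radioactivity accumulated per oocyte, read by liquid scintillation after 10% SDS lysis, served as the uptake measure. Incubations ran 1.5 h at 27.5 °C in ND96 at pH 5.5, matching digestive-vacuole acidity.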

PfCRT^Ecu1110 [2] = biological target: T2, PfCRT^Ecu1110 (Plasmodium falciparum, UniProt Q9N623, A220S/I356L/K76T/N326D); experiment: as above; conditions: for PfCRT-mediated [3H]CQ transport, cis-inhibition (% PfCRTEcu1110 control): PfCRTEcu1110 oocytes, background [3H]CQ accumulation subtracted, normalised to oocyte type control; for [3H]CQ transport (% PfCRTEcu1110 control), cis-inhibition, PfCRTEcu1110: PfCRT-mediated component (background subtracted), sheet title says normalised to PfCRTDd2 control, mean ± SEM, SEM
T2 sequence (Q9N623 whole entry A220S/I356L/K76T/N326D): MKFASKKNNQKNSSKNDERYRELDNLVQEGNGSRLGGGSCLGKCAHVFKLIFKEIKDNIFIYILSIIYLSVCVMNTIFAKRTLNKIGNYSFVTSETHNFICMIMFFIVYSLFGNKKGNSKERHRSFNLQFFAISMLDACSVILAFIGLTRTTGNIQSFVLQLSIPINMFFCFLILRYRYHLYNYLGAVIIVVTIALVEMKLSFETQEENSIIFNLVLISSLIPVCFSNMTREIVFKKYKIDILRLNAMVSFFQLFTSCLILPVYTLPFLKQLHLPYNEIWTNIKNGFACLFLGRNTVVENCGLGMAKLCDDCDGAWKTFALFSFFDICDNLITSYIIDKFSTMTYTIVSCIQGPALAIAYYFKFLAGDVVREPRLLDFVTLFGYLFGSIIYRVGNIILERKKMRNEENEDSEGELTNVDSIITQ
Method in brief: as §1

PfCRT^3D7 = PfCRT^3D7 (Plasmodium falciparum, UniProt Q8IBZ9); experiment: cell-based; conditions: PfCRT3D7 oocytes, normalised to oocyte type control
Sequence of PfCRT^3D7 (Q8IBZ9 59-398): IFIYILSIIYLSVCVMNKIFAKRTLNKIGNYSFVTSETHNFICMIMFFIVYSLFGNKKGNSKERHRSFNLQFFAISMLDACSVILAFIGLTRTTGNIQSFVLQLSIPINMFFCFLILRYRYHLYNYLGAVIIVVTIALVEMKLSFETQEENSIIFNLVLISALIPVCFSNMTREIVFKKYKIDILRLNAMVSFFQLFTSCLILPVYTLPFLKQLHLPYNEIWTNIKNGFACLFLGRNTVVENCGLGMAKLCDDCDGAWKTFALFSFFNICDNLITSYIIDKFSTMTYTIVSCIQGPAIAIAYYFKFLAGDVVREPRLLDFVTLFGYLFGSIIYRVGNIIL
Method in brief: (§2)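 Transport measured in Xenopus oocytes expressing the transporters, 1.5 h at 27.5 °C in ND96 pH 5.5 unless noted. For trans-stimulation, VF-6 injected in 25 nL ND96 at pH 5.0–7.0 or Na^+-free (choline) buffer; intracellular levels based on ~400 nL oocyte volume. Ten oocytes per treatment, ≥4 experiments.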

PfCRT^Dd2 [3] = biological target: T1, PfCRT^Dd2; experiment: cell-based; conditions: for PfCRT-mediated [3H]CQ transport, trans-stimulation (% PfCRTDd2 control): PfCRTDd2 oocytes, normalised to oocyte type control; for [3H]CQ transport (% PfCRTDd2 control), trans-stimulation, PfCRTDd2: PfCRT-mediated component (background subtracted), mean ± SEM, SEM
Method in brief: as §2

PfCRT^Ecu1110 [4] = biological target: T2, PfCRT^Ecu1110; experiment: cell-based; conditions: for PfCRT-mediated [3H]CQ transport, trans-stimulation (% PfCRTEcu1110 control): PfCRTEcu1110 oocytes, normalised to oocyte type control; for [3H]CQ transport (% PfCRTDd2 control), trans-stimulation, PfCRTEcu1110: PfCRT-mediated component (background subtracted), sheet title says normalised to PfCRTDd2 control, mean ± SEM, SEM
Method in brief: as §2

[5] = [test solute]i = 5 mM (intracellular)
[6] = [test solute]i = 45 mM (intracellular; 30 mM for some solutes due to solubility)
[7] = [test solute]i = 5 mM (injected)
[8] = [test solute]i = 45 mM (30 mM for some solutes due to solubility)

T1 sequence (Q9N623 whole entry A220S/I356T/K76T/M74I/N326S/N75E/Q271E/R371I): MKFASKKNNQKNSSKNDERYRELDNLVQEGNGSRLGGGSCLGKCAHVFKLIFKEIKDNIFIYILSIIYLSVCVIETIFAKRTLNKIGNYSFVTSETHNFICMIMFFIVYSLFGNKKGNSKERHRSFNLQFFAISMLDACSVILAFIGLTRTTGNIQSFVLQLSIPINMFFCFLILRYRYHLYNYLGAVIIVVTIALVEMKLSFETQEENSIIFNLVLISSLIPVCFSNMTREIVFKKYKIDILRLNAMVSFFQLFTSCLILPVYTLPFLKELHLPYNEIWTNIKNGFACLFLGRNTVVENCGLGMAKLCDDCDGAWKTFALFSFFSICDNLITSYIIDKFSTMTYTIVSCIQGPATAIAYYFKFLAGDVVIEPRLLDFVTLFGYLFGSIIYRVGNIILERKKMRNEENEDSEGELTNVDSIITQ

| Substance | PfCRT-mediated [3H]CQ transport, cis-inhibition (% PfCRTDd2 control) (PfCRT^Dd2 [1]; [test solute] = 1 mM) | PfCRT-mediated [3H]CQ transport, cis-inhibition (% PfCRTDd2 control) (PfCRT^Dd2 [1]; [test solute] = 2 mM) | PfCRT-mediated [3H]CQ transport, cis-inhibition (% PfCRTEcu1110 control) (PfCRT^Ecu1110 [2]; [test solute] = 0.5 mM) | PfCRT-mediated [3H]CQ transport, cis-inhibition (% PfCRTEcu1110 control) (PfCRT^Ecu1110 [2]; [test solute] = 1 mM) | PfCRT-mediated [3H]CQ transport, cis-inhibition (% PfCRTEcu1110 control) (PfCRT^Ecu1110 [2]; [test solute] = 2 mM) | [3H]CQ transport (% PfCRTEcu1110 control), cis-inhibition, PfCRTEcu1110 (PfCRT^Ecu1110 [2]; [test solute] = 1 mM) | [3H]CQ transport (% PfCRTEcu1110 control), cis-inhibition, PfCRTEcu1110 (PfCRT^Ecu1110 [2]; [test solute] = 2 mM) | PfCRT-mediated [3H]CQ transport, trans-stimulation (% PfCRT3D7 control) (PfCRT^3D7; [5]) | PfCRT-mediated [3H]CQ transport, trans-stimulation (% PfCRT3D7 control) (PfCRT^3D7; [6]) | PfCRT-mediated [3H]CQ transport, trans-stimulation (% PfCRTDd2 control) (PfCRT^Dd2 [3]; [5]) | PfCRT-mediated [3H]CQ transport, trans-stimulation (% PfCRTDd2 control) (PfCRT^Dd2 [3]; [6]) | [3H]CQ transport (% PfCRTDd2 control), trans-stimulation, PfCRTDd2 (PfCRT^Dd2 [3]; [7]) | [3H]CQ transport (% PfCRTDd2 control), trans-stimulation, PfCRTDd2 (PfCRT^Dd2 [3]; [8]) | PfCRT-mediated [3H]CQ transport, trans-stimulation (% PfCRTEcu1110 control) (PfCRT^Ecu1110 [4]; [5]) | PfCRT-mediated [3H]CQ transport, trans-stimulation (% PfCRTEcu1110 control) (PfCRT^Ecu1110 [4]; [6]) | [3H]CQ transport (% PfCRTDd2 control), trans-stimulation, PfCRTEcu1110 (PfCRT^Ecu1110 [4]; [7]) | [3H]CQ transport (% PfCRTDd2 control), trans-stimulation, PfCRTEcu1110 (PfCRT^Ecu1110 [4]; [8]) | PfCRT-mediated [3H]CQ transport, cis-inhibition (% PfCRTDd2 control) (PfCRT^Dd2 [1]; [test solute] = 0.5 mM) | [3H]CQ transport (% PfCRTEcu1110 control), cis-inhibition, PfCRTEcu1110 (PfCRT^Ecu1110 [2]; [test solute] = 0.5 mM) |
| --- | --- | --- | --- | --- | --- | --- | --- | --- | --- | --- | --- | --- | --- | --- | --- | --- | --- | --- | --- |
| PNALS [PS-5, host-derived peptide upstream of PL-4] | 30 ± 2.7 % PfCRTDd2 control | 19 ± 0.3 % PfCRTDd2 control | 50 ± 2.5 % PfCRTEcu1110 control | 42 ± 1.8 % PfCRTEcu1110 control | 29 ± 1.1 % PfCRTEcu1110 control | 13 ± 0.1 % PfCRTEcu1110 control | 9.0 ± 0.01 % PfCRTEcu1110 control | 131 ± 6.2 % PfCRT3D7 control | 180 ± 3.6 % PfCRT3D7 control | 99 ± 4.6 % PfCRTDd2 control | 96 ± 4.1 % PfCRTDd2 control | 99 ± 4.6 % PfCRTDd2 control | 96 ± 4.1 % PfCRTDd2 control | 127 ± 2.6 % PfCRTEcu1110 control | 136 ± 4.6 % PfCRTEcu1110 control | 38 ± 1.5 % PfCRTEcu1110 control | 41 ± 2.2 % PfCRTEcu1110 control |  |  |
| PPVQA [PA-5] | 31 ± 3.1 % PfCRTDd2 control | 19 ± 1.2 % PfCRTDd2 control | 59 ± 2.1 % PfCRTEcu1110 control | 41 ± 1.4 % PfCRTEcu1110 control | 28 ± 0.5 % PfCRTEcu1110 control | 13 ± 0.5 % PfCRTEcu1110 control | 9.0 ± 0.05 % PfCRTEcu1110 control | 133 ± 4.6 % PfCRT3D7 control | 178 ± 5.2 % PfCRT3D7 control | 100 ± 4.2 % PfCRTDd2 control | 95 ± 5.6 % PfCRTDd2 control | 100 ± 4.2 % PfCRTDd2 control | 95 ± 5.6 % PfCRTDd2 control | 91 ± 5.7 % PfCRTEcu1110 control | 97 ± 4.4 % PfCRTEcu1110 control | 28 ± 1.7 % PfCRTEcu1110 control | 29 ± 1.4 % PfCRTEcu1110 control | 39 ± 1.1 % PfCRTDd2 control | 19 ± 0.3 % PfCRTEcu1110 control |
| SHCLLVT [ST-7] | 27 ± 1.3 % PfCRTDd2 control | 12 ± 0.1 % PfCRTDd2 control | 39 ± 1.1 % PfCRTEcu1110 control | 31 ± 2.5 % PfCRTEcu1110 control | 19 ± 1.4 % PfCRTEcu1110 control | 10 ± 0.1 % PfCRTEcu1110 control | 6.0 ± 0.02 % PfCRTEcu1110 control | 140 ± 4.3 % PfCRT3D7 control | 192 ± 4.6 % PfCRT3D7 control | 97 ± 3.2 % PfCRTDd2 control | 113 ± 2.0 % PfCRTDd2 control | 97 ± 3.2 % PfCRTDd2 control | 113 ± 2.0 % PfCRTDd2 control | 130 ± 3.2 % PfCRTEcu1110 control | 136 ± 4.3 % PfCRTEcu1110 control | 39 ± 1.3 % PfCRTEcu1110 control | 41 ± 2.2 % PfCRTEcu1110 control | 38 ± 1.0 % PfCRTDd2 control | 12 ± 0.5 % PfCRTEcu1110 control |
| TPPVQ [TQ-5] | 30 ± 2.1 % PfCRTDd2 control | 15 ± 0.3 % PfCRTDd2 control | 56 ± 3.1 % PfCRTEcu1110 control | 49 ± 2.6 % PfCRTEcu1110 control | 42 ± 2.4 % PfCRTEcu1110 control | 15 ± 0.1 % PfCRTEcu1110 control | 13 ± 0.1 % PfCRTEcu1110 control | 94 ± 3.5 % PfCRT3D7 control | 96 ± 4.2 % PfCRT3D7 control | 96 ± 3.2 % PfCRTDd2 control | 97 ± 4.5 % PfCRTDd2 control | 96 ± 3.2 % PfCRTDd2 control | 97 ± 4.5 % PfCRTDd2 control | 96 ± 3.5 % PfCRTEcu1110 control | 96 ± 2.3 % PfCRTEcu1110 control | 29 ± 1.6 % PfCRTEcu1110 control | 30 ± 1.6 % PfCRTEcu1110 control | 50 ± 2.1 % PfCRTDd2 control |  |
| VDEVGG [VG-6] | 44 ± 2.7 % PfCRTDd2 control | 38 ± 1.3 % PfCRTDd2 control | 61 ± 3.5 % PfCRTEcu1110 control | 51 ± 2.6 % PfCRTEcu1110 control | 39 ± 1.4 % PfCRTEcu1110 control | 16 ± 0.1 % PfCRTEcu1110 control | 12 ± 0.02 % PfCRTEcu1110 control | 140 ± 4.4 % PfCRT3D7 control | 190 ± 3.6 % PfCRT3D7 control | 102 ± 4.7 % PfCRTDd2 control | 112 ± 0.9 % PfCRTDd2 control | 102 ± 4.7 % PfCRTDd2 control | 112 ± 0.9 % PfCRTDd2 control | 128 ± 4.2 % PfCRTEcu1110 control | 139 ± 4.6 % PfCRTEcu1110 control | 39 ± 1.5 % PfCRTEcu1110 control | 42 ± 2.6 % PfCRTEcu1110 control | 55 ± 1.8 % PfCRTDd2 control |  |
